Laboratory results published in patent publication US12685732B2, “Composition for improving, preventing or treating muscular disorders including sulfonamide-based compounds” (The Industry & Academic Cooperation in Chungnam National …, priority 2022, dated 2026).

Legend:
[1] = test system: C2C12-PHF20/YY1-promoter-GFP cell line; assay: HTS system: GFP (green luminescence) in PHF20-overexpressing myoblasts carrying YY1 promoter-GFP; format: cell-based, mouse; conditions: 10 μM compound, 24 h, after 250 ng/ml doxycycline 24 h; FDA-approved drug library of 1670 compounds
Description: C2C12 myoblasts, which were stable cells in which PHF20 was overexpressed, were transformed with a plasmid coexisting with a YY1 promoter and GFP, which inhibited muscle differentiation, to prepare a stable cell line. The degree of GFP signal suppression was quantified and measured, and the degree of muscle differentiation was used as a quantitative measurement index (FIG. 1).
Specifically, the C2C12-PHF20/YY1-promoter-GFP cell line according to Example 1 was dispensed in a 96-well plate at 0.5×10^5, cultured for 24 hours, and cells in a 70% confluent state were treated with 250 ng/ml of doxycycline for 24 hours, and then treated with each compound at a final concentration of 10 μM.
For fluorescence intensity, C2C12-PHF20/YY1-promoter-GFP cells were dispensed at 4×10^5 in a 6-well culture plate and cultured for 24 hours. […] Thereafter, the degree of green luminescence was confirmed using GloMax microplate readers explorer (Promega, Madison, Wisconsin, USA).

[2] = Body weight in aging mouse model; format: in vivo; conditions: oral 5, 50, 500 mpk daily for 28 days, vs PBS
Procedure: (§1) In order to confirm the treadmill exercise capacity according to a dose of sulfasalazine, the mice divided in 3-1 above were orally administered at 10:30 every day for 28 days with Group 1 of PBS (Hyclone Dulbecco's Phaosphate Buffer saline Cat. SH30028.02), Group 2 of sulfasalazine (Sigma, Cat. Nr S0883. CAS Number 599-79-1) 5 mpk, Group 3 of sulfasalazine 50 mpk, and Group 4 of sulfasalazine 500 mpk. In order to reduce an error on treadmill exercise ability, the mice were starved for 3 hours before measuring the treadmill, and then the treadmill was performed 4 times at 7-day intervals (0 days, 7 days, 14 days, and […]) according to Table 1 below.
For a total of 28 days, the body weight of the mouse was measured, and any change in body weight was confirmed.

aging mouse model [3] = assay: Treadmill exercise capacity in aging mouse model; format: in vivo; conditions: oral 5, 50, 500 mpk daily for 28 days, vs PBS (G1)
Procedure: Treadmill adaptation was performed randomly for 3 days under conditions of grade 0, speed 15 (cm/sec), 10 minutes, electrical stimulation […] (defined as exhaustion when electrical stimulation occurred consecutive 4 times or more), and according to the treadmill result, mice with similar ability were distributed into each group and divided into 4 groups of 8 mice per group.
as §1

aging mouse model [4] = assay: Rota Rod balance ability in aging mouse model; format: in vivo; conditions: oral 5, 50, 500 mg/kg daily for 28 days; days 0, 7, 14, 21, 28
Procedure: (§2) In order to confirm the balance ability and the grip strength recovery effect of the Rota Rod according to a dose of sulfasalazine, 50-week-old C57BL/6J male mice were divided into Group 1 of PBS, Group 2 of sulfasalazine 5 mg/kg, Group 3 of sulfasalazine 50 mg/kg, and Group 4 of sulfasalazine 500 mg/kg, and orally administered every day at 10 am for 28 days, and then the body weight was measured.
(§3) The Rota Rod was measured on days 0, 7, 14, 21, and 28 with the animal group constructed in Group 2 under the conditions shown in Table 2 below, and the results were shown in FIG. 11 ((*) p≤0.05 vs G1). In the same animal group as the Rota Rod, the grip strength was measured on the 2 paws and 4 paws of the mouse on days 0, 9, 16, 23, and 28, and the results were shown in FIGS. 12A and 12B.

aging mouse model [5] = assay: Grip strength in aging mouse model; format: in vivo; conditions: oral 5, 50, 500 mg/kg daily for 28 days; vs control Group 1
Procedure: as §2, §3

[6] = Body weight in high-fat diet CTX-induced sarcopenia mouse model; format: in vivo; conditions: oral 5, 50, 500 mg/kg daily for 14 days
Procedure: (§4) In order to construct a high-fat diet CTX-induced sarcopenia mouse model, for 23-week-old C57BL/6J male mice subjected to 60% HFD for 19 weeks, cardiotoxin (LATOXAN, Portes-lés-Valence, France) was dissolved at 1 mg/ml in PBS to make a high-concentration stock solution. For application to mice, the stock solution was diluted again in PBS (Hyclone Dulbecco's Phaosphate Buffer saline Cat. SH30028.02) to a final concentration of 0.03 mg/ml and used, and intramuscularly injected into both quadriceps muscles of the mouse using a 1 ml syringe (24 G) to construct the high-fat diet CTX-induced sarcopenia mouse model.
(§5) Five groups of Group 1 of orally administering PBS to a high-fat diet mouse without injecting CTX, Group 2 of orally administering PBS to a high-fat diet mouse injected with CTX, Group 3 of orally administering sulfasalazine 5 mg/kg to the high-fat diet mouse injected with CTX, Group 4 of orally administering sulfasalazine 50 mg/kg to the high-fat diet mouse injected with CTX, and Group 5 of orally administering sulfasalazine 500 mg/kg to the high-fat diet mouse injected with CTX were divided and orally administered at 10 am every day for 14 days, and the body weights were measured and the results were shown in FIG. 13.

[7] = test system: high-fat diet CTX-induced sarcopenia mouse model; assay: Rota Rod balance ability in high-fat diet CTX-induced sarcopenia mouse model; format: in vivo; conditions: oral 5, 50, 500 mg/kg daily for 14 days; days 4, 8, 12; vs group injected with CTX
Procedure: as §4
as §5, with “13. […]” for “13.”

[8] = test system: high-fat diet CTX-induced sarcopenia mouse model; assay: Grip strength in high-fat diet CTX-induced sarcopenia mouse model; format: in vivo; conditions: oral 5, 50, 500 mg/kg daily for 14 days; days 5, 9, 13; vs group injected with CTX
Procedure: as §4
as §5, with “13. […]” for “13.”

[9] = Body weight in Velcro injured sarcopenia mouse model; format: in vivo; conditions: oral 5, 50, 500 mg/kg daily for 14 days
Description: (§6) The left leg of an 8-week-old C57BL/6J male mouse was anesthetized with isoflurane, the entire leg was wound from the ankle with a 5 cm sports tape, and then wound and fixed with a Velcro with a width of 10 mm, and the Velcro condition was checked every day for 14 days (FIG. 16). Meanwhile, in the present disclosure, Velcro injury means that muscle damage is caused by such Velcro by winding the muscle with the Velcro so as not to move.
(§7) In order to confirm the amount of treadmill exercise according to the dose of sulfasalazine, Group 1 (n=5) of orally administering PBS to 8-week-old C57BL/6J male mice without injury, Group 2 (n=5) of orally administering PBS to mice with Velcro injury, Group 3 (n=5) of orally administering sulfasalazine 5 mg/kg to mice with Velcro injury, Group 4 (n=5) of orally administering sulfasalazine 50 mg/kg to mice with Velcro injury, and Group 5 (n=5) of orally administering sulfasalazine 500 mg/kg to mice with Velcro injury were divided and orally administered at 10 am every day for 14 days, and the body weights were measured and the results were illustrated in FIG. 18. […]
For a total of 14 days, the body weights of the mice were measured, and any change in body weight was confirmed.

[10] = test system: Velcro injured sarcopenia mouse model; assay: Treadmill exercise capacity in Velcro injured sarcopenia mouse model; format: in vivo; conditions: oral 5, 50, 500 mg/kg; days 0, 3, 6, 10, 14; after day 6 of administration
Description: as §6, §7

## Nc1ccc(S(=O)(=O)Nc2ncccn2)cc1 [sulfadiazine]
[1]
  degree of green luminescence (GFP inhibition) in screening: effect of reducing green luminescence

## COc1cc(NS(=O)(=O)c2ccc(N)cc2)nc(OC)n1 [sulfadimethoxine]
[1]
  degree of green luminescence (GFP inhibition) in screening: effect of reducing green luminescence

## COc1ncnc(NS(=O)(=O)c2ccc(N)cc2)c1OC [sulfadoxin]
[1]
  degree of green luminescence (GFP inhibition) in screening: effect of reducing green luminescence

## N=C(N)NS(=O)(=O)c1ccc(N)cc1 [sulfaguanidine]
[1]
  degree of green luminescence (GFP inhibition) in screening: effect of reducing green luminescence

## COc1cnc(NS(=O)(=O)c2ccc(N)cc2)nc1 [sulfameter]
[1]
  degree of green luminescence (GFP inhibition) in screening: effect of reducing green luminescence

## Cc1nnc(NS(=O)(=O)c2ccc(N)cc2)s1 [sulfamethizole]
[1]
  degree of green luminescence (GFP inhibition) in screening: effect of reducing green luminescence

## Nc1ccc(S(N)(=O)=O)cc1 [sulfanilamide]
[1]
  degree of green luminescence (GFP inhibition) in screening: effect of reducing green luminescence

## Nc1ccc(S(=O)(=O)Nc2ccnn2-c2ccccc2)cc1 [sulfaphenazole]
[1]
  degree of green luminescence (GFP inhibition) in screening: effect of reducing green luminescence

## Nc1ccc(S(=O)(=O)Nc2ccccn2)cc1 [sulfapyridine]
[1]
  degree of green luminescence (GFP inhibition) in screening: effect of reducing green luminescence

## O=C(O)c1cc(/N=N/c2ccc(S(=O)(=O)Nc3ccccn3)cc2)ccc1O [sulfasalazine]
[1]
  degree of green luminescence (GFP inhibition) in screening: effect of reducing green luminescence
[2]
  body weight: no difference in body weight was observed
Aging mouse model [3]
  treadmill exercise capacity (latency to fall): the higher the sulfasalazine dose, the higher the treadmill exercise capacity
Aging mouse model [4]
  balance ability on the Rota Rod: recovery of balance ability of the mouse on the Rota Rod was improved
Aging mouse model [5]
  grip strength, 2 paws: grip strength was improved with the increase in sulfasalazine dose
  grip strength, 4 paws: grip strength was improved with the increase in sulfasalazine dose
[6]
  body weight: no difference in body weight was observed
[7]
  balance ability on the Rota Rod: recovery of balance ability of the mouse on the Rota Rod was improved
[8]
  grip strength, 2 paws: grip strength was improved with the increase in sulfasalazine dose
  grip strength, 4 paws: grip strength was improved with the increase in sulfasalazine dose
[9]
  body weight: no difference in body weight was observed
[10]
  treadmill running distance: treadmill running distances were increased as the administration period was increased
  treadmill running time: treadmill running time was increased as the administration period was increased

## Nc1ccc(S(=O)(=O)Nc2nccs2)cc1 [sulfathiazole]
[1]
  degree of green luminescence (GFP inhibition) in screening: effect of reducing green luminescence
